Measurements reported in PubChem BioAssay AID248 (DTP/NCI, 2004).
Toxic doses and inconclusive results are not listed. Rule as the data show it: active = T/C of 150% or more; inactive = T/C below 125%.

System: L1210 leukemia ip in BDF1 mice, survival T/C
Test: NCI In Vivo Anticancer Drug Screen. Data for tumor model L1210 Leukemia (intraperitoneal) in B6D2F1 (BDF1) mice
Settings: higher = longer survival
In short: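 Antitumor effect is assessed in tumor-bearing animals. Survival in the compound arm is compared with a vehicle-dosed control arm and expressed as their quotient.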

[1] = endpoint: mean survival time, dose: 100.0 mg/kg/injection, schedule: Q04DX003 (ip), vehicle: Klucel (hydroxypropylcellulose) (HPC)
[2] = endpoint: mean survival time, dose: 200.0 mg/kg/injection, schedule: Q04DX003 (ip), vehicle: Klucel (hydroxypropylcellulose) (HPC)
[3] = endpoint: mean survival time, dose: 400.0 mg/kg/injection, schedule: Q04DX003 (ip), vehicle: Klucel (hydroxypropylcellulose) (HPC)
[4] = endpoint: mean survival time, dose: 50.0 mg/kg/injection, schedule: Q01DX009 (ip), vehicle: saline
[5] = endpoint: mean survival time, dose: 100.0 mg/kg/injection, schedule: Q01DX009 (ip), vehicle: saline
[6] = endpoint: mean survival time, dose: 200.0 mg/kg/injection, schedule: Q01DX009 (ip), vehicle: saline
[7] = endpoint: mean survival time, dose: 100.0 mg/kg/injection, schedule: Q01DX009 (ip), vehicle: Klucel (hydroxypropylcellulose) (HPC)
[8] = endpoint: mean survival time, dose: 200.0 mg/kg/injection, schedule: Q01DX009 (ip), vehicle: Klucel (hydroxypropylcellulose) (HPC)
[9] = endpoint: mean survival time, dose: 400.0 mg/kg/injection, schedule: Q01DX009 (ip), vehicle: Klucel (hydroxypropylcellulose) (HPC)
[10] = endpoint: mean survival time, dose: 100.0 mg/kg/injection, schedule: Q01DX001 (ip), vehicle: saline
[11] = endpoint: mean survival time, dose: 200.0 mg/kg/injection, schedule: Q01DX001 (ip), vehicle: saline
[12] = endpoint: mean survival time, dose: 400.0 mg/kg/injection, schedule: Q01DX001 (ip), vehicle: saline
[13] = endpoint: mean survival time, dose: 100.0 mg/kg/injection, schedule: Q01DX009 (ip), vehicle: saline with Tween-80
[14] = endpoint: mean survival time, dose: 200.0 mg/kg/injection, schedule: Q01DX009 (ip), vehicle: saline with Tween-80
[15] = endpoint: mean survival time, dose: 200.0 mg/kg/injection, schedule: Q01DX001 (sc), vehicle: steriod suspending solution
[16] = endpoint: mean survival time, dose: 400.0 mg/kg/injection, schedule: Q01DX001 (sc), vehicle: steriod suspending solution

Measured: T/C

N#CC(Cc1ccccc1)C(=O)O (centres undefined)
inactive: endpoint: mean survival time, dose: 50.0 mg/kg/injection, schedule: Q01DX Z (ip), vehicle: saline 106 % of control | endpoint: mean survival time, dose: 100.0 mg/kg/injection, schedule: Q01DX Z (ip), vehicle: saline 102 % of control | endpoint: mean survival time, dose: 200.0 mg/kg/injection, schedule: Q01DX Z (ip), vehicle: saline 91 % of control

CC(=O)Oc1c(C)cccc1C(=O)O
inactive: [1] 92 % of control | [2] 103 % of control | [3] 88 % of control

Nc1ncnc2c1ncn2C1OC(CF)C(O)C1O (centres undefined)
inactive: [4] 101 % of control | [5] 100 % of control | [6] 114 % of control

O=C(NC(=S)Nc1cccc(Cl)c1)c1cccc([N+](=O)[O-])c1
inactive: [7] 103 % of control | [1] 105 % of control | [8] 100 % of control | [2] 97 % of control | [9] 100 % of control | [3] 95 % of control

c1ccc(SCN2CCN(CSc3ccccc3)CC2)cc1
inactive: endpoint: mean survival time, dose: 100.0 mg/kg/injection, schedule: Q04DX003 (ip), vehicle: saline 101 % of control | endpoint: mean survival time, dose: 200.0 mg/kg/injection, schedule: Q04DX003 (ip), vehicle: saline 101 % of control | endpoint: mean survival time, dose: 400.0 mg/kg/injection, schedule: Q04DX003 (ip), vehicle: saline 98 % of control

CC1(C)CCC2(C(=O)OC3OC(CO)C(O)C(O)C3O)CCC3(CO)C(=CCC4C5(C)CC(O)C(O)C(C)(C(=O)OC6OC(CO)C(O)C(O)C6O)C5CCC43C)C2C1 (centres undefined)
inactive: endpoint: mean survival time, dose: 75.0 mg/kg/injection, schedule: Q01DX001 (sc), vehicle: steriod suspending solution 101 % of control | endpoint: mean survival time, dose: 300.0 mg/kg/injection, schedule: Q01DX001 (sc), vehicle: steriod suspending solution 107 % of control

CN(CCN(C)CP(c1ccccc1)c1ccccc1)CP(c1ccccc1)c1ccccc1
inactive: endpoint: mean survival time, dose: 100.0 mg/kg/injection, schedule: Q04DX002 (sc), vehicle: olive oil, sesame oil, peanut oil 96 % of control | endpoint: mean survival time, dose: 200.0 mg/kg/injection, schedule: Q04DX002 (sc), vehicle: olive oil, sesame oil, peanut oil 104 % of control | endpoint: mean survival time, dose: 400.0 mg/kg/injection, schedule: Q04DX002 (sc), vehicle: olive oil, sesame oil, peanut oil 110 % of control

O=C(O)C(CS)NS(=O)(=O)Cc1ccccc1 (centres undefined)
inactive: endpoint: mean survival time, dose: 100.0 mg/kg/injection, schedule: Q01DX001 (ip), vehicle: other 104 % of control | endpoint: mean survival time, dose: 200.0 mg/kg/injection, schedule: Q01DX001 (ip), vehicle: other 94 % of control | endpoint: mean survival time, dose: 400.0 mg/kg/injection, schedule: Q01DX001 (ip), vehicle: other 100 % of control

COc1ccc(NC(=O)Oc2ccc(Cl)cc2C)c(OC)c1
inactive: [7] 104 % of control | [8] 108 % of control | [9] 108 % of control

CCCCC(CC)COC(=O)CC(CC(=O)OCC(CC)CCCC)C(=O)OCC(CC)CCCC (centres undefined)
inactive: [4] 111 % of control | [5] 97 % of control | [6] 92 % of control

NC(N)=NS(=O)(=O)c1ccc(C(N)=NC2CCCCC2)cc1
inactive: [10] 96 % of control | [11] 96 % of control | [12] 90 % of control

CC1CC([O-])=N/[N+]1=C\c1ccccc1 (centres undefined)
inactive: [10] 97 % of control | [13] 96 % of control | [11] 95 % of control | [14] 87 % of control | [12] 97 % of control

CC1=C(/C=C/C(C)=C/C=C/C(C)=C/C(=O)O)C(C)(C)CCC1
inactive: endpoint: mean survival time, dose: 88.0 mg/kg/injection, schedule: Q01DX009 (ip), vehicle: steriod suspending solution 89 % of control | [13] 100 % of control | [15] 104 % of control | [14] 94 % of control | [16] 98 % of control | endpoint: mean survival time, dose: 400.0 mg/kg/injection, schedule: Q01DX009 (ip), vehicle: saline with Tween-80 91 % of control | endpoint: median survival time, dose: 25.0 mg/kg/injection, schedule: Q01DX009 (ip), vehicle: other 111 % of control | endpoint: median survival time, dose: 50.0 mg/kg/injection, schedule: Q01DX009 (ip), vehicle: other 100 % of control | endpoint: median survival time, dose: 100.0 mg/kg/injection, schedule: Q01DX009 (ip), vehicle: other 100 % of control | endpoint: median survival time, dose: 200.0 mg/kg/injection, schedule: Q01DX009 (ip), vehicle: other 100 % of control

C[C@]12CC[C@H](OC(=O)Cc3ccc(N(CCCl)CCCl)cc3)CC1=CC[C@@H]1[C@@H]2CC[C@]2(C)C(=O)CC[C@@H]12
inactive: endpoint: mean survival time, dose: 100.0 mg/kg/injection, schedule: Q04DX003 (ip), vehicle: saline with Tween-80 88 % of control | endpoint: mean survival time, dose: 200.0 mg/kg/injection, schedule: Q04DX003 (ip), vehicle: saline with Tween-80 88 % of control | endpoint: mean survival time, dose: 400.0 mg/kg/injection, schedule: Q04DX003 (ip), vehicle: saline with Tween-80 88 % of control

Cn1nc(C(=O)O)c(=O)[nH]c1=S
inactive: endpoint: mean survival time, dose: 100.0 mg/kg/injection, schedule: Q01DX Z (ip), vehicle: methylcellulose (MC) 97 % of control | endpoint: mean survival time, dose: 200.0 mg/kg/injection, schedule: Q01DX Z (ip), vehicle: methylcellulose (MC) 92 % of control

CC(Br)CNC(=O)c1cc([N+](=O)[O-])cc([N+](=O)[O-])c1 (centres undefined)
inactive: endpoint: mean survival time, dose: 75.0 mg/kg/injection, schedule: Q04DX003 (ip), vehicle: Klucel (hydroxypropylcellulose) (HPC) 96 % of control | endpoint: mean survival time, dose: 150.0 mg/kg/injection, schedule: Q04DX003 (ip), vehicle: Klucel (hydroxypropylcellulose) (HPC) 92 % of control | endpoint: mean survival time, dose: 300.0 mg/kg/injection, schedule: Q04DX003 (ip), vehicle: Klucel (hydroxypropylcellulose) (HPC) 94 % of control

Cc1cc(C)c([N+](=O)[O-])c(N)n1
inactive: endpoint: mean survival time, dose: 100.0 mg/kg/injection, schedule: Q01DX001 (ip), vehicle: Klucel (hydroxypropylcellulose) (HPC) 102 % of control | [7] 102 % of control | endpoint: mean survival time, dose: 200.0 mg/kg/injection, schedule: Q01DX001 (ip), vehicle: Klucel (hydroxypropylcellulose) (HPC) 105 % of control | [8] 101 % of control | endpoint: mean survival time, dose: 400.0 mg/kg/injection, schedule: Q01DX001 (ip), vehicle: Klucel (hydroxypropylcellulose) (HPC) 100 % of control | [9] 103 % of control

COC(=O)CC12CCCC(C)(CC(=O)N1)C2 (centres undefined)
inactive: endpoint: mean survival time, dose: 100.0 mg/kg/injection, schedule: Q01DX001 (ip), vehicle: carboxymethylcellulose (CMC) 93 % of control | endpoint: mean survival time, dose: 200.0 mg/kg/injection, schedule: Q01DX001 (ip), vehicle: carboxymethylcellulose (CMC) 96 % of control | endpoint: mean survival time, dose: 400.0 mg/kg/injection, schedule: Q01DX001 (ip), vehicle: carboxymethylcellulose (CMC) 98 % of control

CCOC(=O)C1C(C#N)C2OC1C(Cl)C2Cl (centres undefined)
inactive: [7] 100 % of control | [8] 102 % of control | [9] 94 % of control

CCCCCCCCCN=C(N)CSSCC(N)=NCCCCCCCCC
inactive: endpoint: mean survival time, dose: 1.0 mg/kg/injection, schedule: Q01DX009 (ip), vehicle: Klucel (hydroxypropylcellulose) (HPC) 109 % of control | endpoint: mean survival time, dose: 1.0 mg/kg/injection, schedule: Q04DX002 (ip), vehicle: Klucel (hydroxypropylcellulose) (HPC) 101 % of control | endpoint: mean survival time, dose: 2.0 mg/kg/injection, schedule: Q01DX009 (ip), vehicle: Klucel (hydroxypropylcellulose) (HPC) 111 % of control | endpoint: mean survival time, dose: 2.0 mg/kg/injection, schedule: Q04DX002 (ip), vehicle: Klucel (hydroxypropylcellulose) (HPC) 116 % of control | endpoint: mean survival time, dose: 4.0 mg/kg/injection, schedule: Q01DX009 (ip), vehicle: Klucel (hydroxypropylcellulose) (HPC) 109 % of control | endpoint: mean survival time, dose: 4.0 mg/kg/injection, schedule: Q04DX002 (ip), vehicle: Klucel (hydroxypropylcellulose) (HPC) 116 % of control

CC12CCC3c4ccc(O)cc4CCC3C1CCC2=O (centres undefined)
inactive: endpoint: mean survival time, dose: 100.0 mg/kg/injection, schedule: Q01DX001 (sc), vehicle: steriod suspending solution 92 % of control | [15] 92 % of control | [16] 86 % of control
